Among the data in PubChem BioAssay AID200 (DTP/NCI, 2004) are T/C values, retold here.

For this assay, the system named is B6C3F1 mice, B16 melanoma ip, median survival T/C. In words: NCI In Vivo Anticancer Drug Screen. Data for tumor model B16 Melanoma (intraperitoneal) in B6C3F1 mice. The conditions noted are these: endpoint: median survival time, higher = longer survival. In outline:
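Antitumor effect was judged in mice with transplanted tumors by dividing the treated group's survival measure by that of vehicle controls.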

The mark [1] stands for this setting: dose: 25.0 mg/kg/injection, schedule: Q01DX009 (ip), vehicle: Klucel (hydroxypropylcellulose) (HPC).
The mark [2] stands for this setting: dose: 50.0 mg/kg/injection, schedule: Q01DX009 (ip), vehicle: Klucel (hydroxypropylcellulose) (HPC).
Where [3] appears, read: dose: 100.0 mg/kg/injection, schedule: Q01DX009 (ip), vehicle: Klucel (hydroxypropylcellulose) (HPC).
The mark [4] stands for this setting: dose: 25.0 mg/kg/injection, schedule: Q01DX009 (ip), vehicle: saline with Tween-80.
Where [5] appears, read: dose: 50.0 mg/kg/injection, schedule: Q01DX009 (ip), vehicle: saline with Tween-80.
The mark [6] stands for this setting: dose: 10.0 mg/kg/injection, schedule: Q01DX009 (ip), vehicle: saline with Tween-80.
[7] abbreviates: dose: 200.0 mg/kg/injection, schedule: Q01DX009 (ip), vehicle: Klucel (hydroxypropylcellulose) (HPC).

“And” between values parts separate entries of the source, which are not always exact repeats. Identical values can stand only once. Inconclusive results and toxic doses are left out. *1 amine or outer side, *2 acyl side, *3 side chain or, on linkers, in order; H or OH if unused. Where a SMILES comes first, the peptide text is derived from it. Bridges are numbered along the chain shown (N, C = ends). Roman numbers before positions name the chains, in order. [ ]: non-standard residue; d: D form. The star is where a group is joined. Actinocin(1to9) = Cc1c2oc3c(C)ccc(C(=O)[*:2])c3nc-2c(C(=O)[*:1])c(N)c1=O; X1 = COC(=O)CCN(CC(=O)[*:2])[*:1]; NMeA = CN[CH](C)C(=O)O; For = O=C*

For the molecule `COC(=O)CCN1CC(=O)N(C)C(C)C(=O)OC(C)C(NC(=O)c2c3nc4c(C(=O)NC5C(=O)NC(C(C)C)C(=O)N6CCCC6C(=O)N(CCC(=O)OC)CC(=O)N(C)C(C)C(=O)OC5C)ccc(C)c4oc-3c(C)c(=O)c2N)C(=O)NC(C(C)C)C(=O)N2CCCC2C1=O` (stereo not drawn) (I: TVP[X1][NMeA] / II: TVP[X1][NMeA]; ester I:1-I:C, II:1-II:C; linker I:N-II:N via Actinocin(1to9); configuration not given here), the T/C (dose: 0.25 mg/kg/injection, schedule: Q04DX003 (ip), vehicle: saline + alcohol) is 109 % of control; the T/C (dose: 0.5 mg/kg/injection, schedule: Q04DX003 (ip), vehicle: saline + alcohol) was 105 % of control; the T/C (dose: 1.0 mg/kg/injection, schedule: Q04DX003 (ip), vehicle: saline + alcohol) was 98 % of control and 104 % of control; the T/C (dose: 2.0 mg/kg/injection, schedule: Q04DX003 (ip), vehicle: saline + alcohol) was 118 % of control and 102 % of control; the T/C (dose: 4.0 mg/kg/injection, schedule: Q04DX003 (ip), vehicle: saline + alcohol) is 114 % of control; the T/C (dose: 8.0 mg/kg/injection, schedule: Q04DX003 (ip), vehicle: saline + alcohol) is 121 % of control.

For `CN(C)N=Nc1ccc(Cl)c2ncccc12`, the T/C reads like this: (dose: 3.13 mg/kg/injection, schedule: Q01DX009 (ip), vehicle: other) 115 % of control; (dose: 6.25 mg/kg/injection, schedule: Q01DX009 (ip), vehicle: other) 106 % of control; (dose: 12.5 mg/kg/injection, schedule: Q01DX009 (ip), vehicle: other) 109 % of control; (dose: 25.0 mg/kg/injection, schedule: Q01DX009 (ip), vehicle: other) 117 % of control; (dose: 50.0 mg/kg/injection, schedule: Q01DX009 (ip), vehicle: other) 114 % of control.

As for `O=[N+]([O-])c1ccc2c3c(ccc([N+](=O)[O-])c13)CC2`, the T/C is 89 % of control under setting [1]; 89 % of control under setting [2]; 91 % of control and 95 % of control under setting [3].

In the case of `CCC(=O)OCC1OC(n2cnc3c(=S)nc(N)[nH]c32)C(OC(=O)CC)C1OC(=O)CC` (stereo not drawn), the T/C under setting [1] was 86 % of control.

Regarding `Nc1nc(=S)c2ncn(C3OC(COC(=O)c4ccccc4)C(OC(=O)c4ccccc4)C3OC(=O)c3ccccc3)c2[nH]1` (stereo not drawn), the T/C was 112 % of control (dose: 6.25 mg/kg/injection, schedule: Q01DX009 (ip), vehicle: saline with Tween-80); 117 % of control (dose: 12.5 mg/kg/injection, schedule: Q01DX009 (ip), vehicle: saline with Tween-80); 111 % of control under setting [4]; 97 % of control under setting [5].

Turning to `O=C1NC(=O)C2(CCc3ccc(N(CCCl)CCCl)cc32)N1` (stereo not drawn), the T/C was 122 % of control (dose: 1.5 mg/kg/injection, schedule: Q01DX009 (ip), vehicle: saline with Tween-80); 100 % of control (dose: 6.25 mg/kg/injection, schedule: Q01DX009 (oral), vehicle: saline with Tween-80); 157 % of control (dose: 12.0 mg/kg/injection, schedule: Q01DX009 (ip), vehicle: saline with Tween-80); 115 % of control and 108 % of control (dose: 12.5 mg/kg/injection, schedule: Q01DX009 (oral), vehicle: saline with Tween-80); 202 % of control (dose: 24.0 mg/kg/injection, schedule: Q01DX009 (ip), vehicle: saline with Tween-80); 109 % of control and 105 % of control (dose: 25.0 mg/kg/injection, schedule: Q01DX009 (oral), vehicle: saline with Tween-80). Besides, the T/C was 236 % of control (dose: 48.0 mg/kg/injection, schedule: Q01DX009 (ip), vehicle: saline with Tween-80); 121 % of control and 104 % of control (dose: 50.0 mg/kg/injection, schedule: Q01DX009 (oral), vehicle: saline with Tween-80); 109 % of control and 117 % of control (dose: 100.0 mg/kg/injection, schedule: Q01DX009 (oral), vehicle: saline with Tween-80); 117 % of control and 101 % of control (dose: 200.0 mg/kg/injection, schedule: Q01DX009 (oral), vehicle: saline with Tween-80); 109 % of control (dose: 400.0 mg/kg/injection, schedule: Q01DX009 (oral), vehicle: saline with Tween-80).

Turning to `O=C1c2ccccc2C(Cl)(c2ccc(Cl)cc2)c2ccc(Cl)cc21` (stereo not drawn), the T/C by setting is: under setting [4], 114 % of control; (dose: 36.0 mg/kg/injection, schedule: Q01DX009 (ip), vehicle: saline with Tween-80) 109 % of control; under setting [5], 116 % of control and 120 % of control; (dose: 60.0 mg/kg/injection, schedule: Q01DX009 (ip), vehicle: saline with Tween-80) 111 % of control; (dose: 100.0 mg/kg/injection, schedule: Q01DX009 (ip), vehicle: saline with Tween-80) 115 % of control and 107 % of control; (dose: 166.67 mg/kg/injection, schedule: Q01DX009 (ip), vehicle: saline with Tween-80) 122 % of control. For the same molecule, the T/C (dose: 200.0 mg/kg/injection, schedule: Q01DX009 (ip), vehicle: saline with Tween-80) is 117 % of control and the T/C (dose: 277.78 mg/kg/injection, schedule: Q01DX009 (ip), vehicle: saline with Tween-80) was 103 % of control.

In the case of `O=C1C=C[C@H](O)[C@@]2(CO)O[C@@H]12`, the T/C is 98 % of control (dose: 0.31 mg/kg/injection, schedule: Q01DX009 (ip), vehicle: saline with Tween-80); 100 % of control (dose: 0.62 mg/kg/injection, schedule: Q01DX009 (ip), vehicle: saline with Tween-80); 102 % of control (dose: 1.25 mg/kg/injection, schedule: Q01DX009 (ip), vehicle: saline with Tween-80); 109 % of control (dose: 2.5 mg/kg/injection, schedule: Q01DX009 (ip), vehicle: saline with Tween-80); 115 % of control and 93 % of control (dose: 5.0 mg/kg/injection, schedule: Q01DX009 (ip), vehicle: saline with Tween-80); 121 % of control under setting [6].

Turning to `O=C(NC(CSSCC(NC(=O)OCc1ccccc1)C(=O)O)C(=O)O)OCc1ccccc1` (stereo not drawn), the T/C under setting [1] was 104 % of control, the T/C under setting [2] was 94 % of control, the T/C under setting [3] is 102 % of control and the T/C under setting [7] is 88 % of control.

Turning to `CC(CNC(=O)CCOS(C)(=O)=O)NC(=O)CCOS(C)(=O)=O` (stereo not drawn), the T/C is 187 % of control (dose: 100.0 mg/kg/injection, schedule: Q01DX009 (ip), vehicle: saline); 177 % of control and 240 % of control (dose: 200.0 mg/kg/injection, schedule: Q01DX009 (ip), vehicle: saline).

For `COc1ccccc1Cc1c(OC)cc(OC)c(C(=O)CCc2ccccc2)c1O`, the T/C (dose: 4.3 mg/kg/injection, schedule: Q01DX009 (ip), vehicle: other) is 101 % of control; the T/C (dose: 6.4 mg/kg/injection, schedule: Q01DX009 (ip), vehicle: other) is 92 % of control; the T/C (dose: 9.6 mg/kg/injection, schedule: Q01DX009 (ip), vehicle: other) is 89 % of control; the T/C (dose: 14.0 mg/kg/injection, schedule: Q01DX009 (ip), vehicle: other) is 94 % of control.

For `CSCCC(NC=O)C(=O)NC(C(=O)O)C(C)C` (stereo not drawn) (For-Met-Val-OH; configuration not given here), the T/C runs as follows: under setting [1], 101 % of control; under setting [2], 101 % of control; under setting [3], 107 % of control; under setting [7], 105 % of control; (dose: 400.0 mg/kg/injection, schedule: Q01DX009 (ip), vehicle: Klucel (hydroxypropylcellulose) (HPC)) 98 % of control.

Take `NC1(C(=O)O)CCCc2ccc(N(CCCl)CCCl)cc21` (stereo not drawn): the T/C was 120 % of control (dose: 2.5 mg/kg/injection, schedule: Q01DX009 (ip), vehicle: saline); 121 % of control under setting [6]; 157 % of control (dose: 10.0 mg/kg/injection, schedule: Q01DX009 (ip), vehicle: saline); 189 % of control (dose: 20.0 mg/kg/injection, schedule: Q01DX009 (ip), vehicle: saline).

Consider `CC(=O)OCC12C3CC(=O)OC1C(OC(=O)C=C(C)C)C1C(C)=CC(=O)C(OC(C)=O)C1(C)C2C(=O)C(OC(C)=O)C3C` (stereo not drawn), for which the T/C was 93 % of control (dose: 0.5 mg/kg/injection, schedule: Q01DX009 (ip), vehicle: distilled water + Tween-80); 101 % of control (dose: 1.0 mg/kg/injection, schedule: Q01DX009 (ip), vehicle: distilled water + Tween-80); 118 % of control (dose: 2.0 mg/kg/injection, schedule: Q01DX009 (ip), vehicle: distilled water + Tween-80); 93 % of control (dose: 4.0 mg/kg/injection, schedule: Q01DX009 (ip), vehicle: distilled water + Tween-80); 98 % of control (dose: 8.0 mg/kg/injection, schedule: Q01DX009 (ip), vehicle: distilled water + Tween-80).
